Here are results for two molecules from US20200297820A1, “STIMULATION OF HUMAN MEIBOMIAN GLAND FUNCTION” (The Schepens Eye Research Institute, Inc., priority 2013, published 2020).

Data set [1] concerns immortalized human meibomian gland epithelial cells. Description: Cellular morphology (terminal maturation, holocrine-like secretion). It is filed as cell-based. As to conditions: azithromycin 10 μg/ml. The procedure: As an example of these experiments, immortalized human meibomian gland epithelial cells were cultured in the presence or absence of 10% fetal bovine serum. Cells were treated with an ethanol vehicle or azithromycin (10 μg/ml; Santa Cruz Biotechnology) for varying time periods. Cellular morphological appearance was recorded, cells were counted with a hemocytometer, and lipid accumulation was assessed by staining the cells with LipidTOX green neutral lipid stain (Invitrogen, Grand Island, N.Y.), according to reported methods. Staining fluorescent intensities were quantified by using ImageJ (http://rsbweb.nih.gov/ij/index.html). Statistical analyses were performed with Student's t-test (two-tailed, unpaired). Immortalized human meibomian gland epithelial cells ([…]; passages 20-22) were cultured in the presence or absence of 10% fetal bovine serum. Cells were treated with the ethanol vehicle or azithromycin (10 μg/mL) for varying periods. Cellular morphological appearance was recorded, cells were counted with a hemocytometer, and lipid accumulation was assessed by staining cells with LipidTOX green neutral lipid stain (Invitrogen Corp). Staining fluorescent intensities were quantified using ImageJ software (http://rsbweb.nih.gov/ij/index.html). Statistical analyses were performed with t test (2-tailed, unpaired).

For data set [2], the system named is human meibomian gland epithelial cells. As to the kind of experiment: Filipin III staining of free (unesterified) cholesterol. In kind it is cell-based. As to conditions: 10 μg/ml, 5 days. The procedure:
This section outlines the materials and methods that produced the experimental data. Immortalized human meibomian gland epithelial cells were cultured in the presence or absence of 10% fetal bovine serum. After reaching 80-90% confluence (˜5×10^6/well), cells were exposed to the vehicle (0.02% ethanol) or azithromycin (10 μg/ml) for 5 days and then processed for histological and biochemical procedures.
(§1) Cell numbers were enumerated with a hemocytometer. Cellular lipid and lysosome accumulation were examined by staining cells with: Filipin III (a fluorometric probe for identifying unesterified cholesterol), LipidTOX green neutral lipid stain, and LysoTracker® Red DND-99 (a fluorescent technique designed for labeling acidic organelles such as lysosomes). Lysosomal lamellar bodies were identified by transmission electron microscopy. In brief, after culture and treatment on 24 mm polycarbonate membrane transwell inserts (0.4 μm pore size), cells were fixed in a solution of 2% formaldehyde+2.5% glutaraldehyde, in 0.08 M sodium cacodylate buffer, pH 7.4, post-fixed with 2% osmium tetroxide in 0.1 M sodium cacodylate buffer, and stained en bloc with 2% aqueousuranyl acetate. […] Lipids were then evaluated with high-performance thin-layer chromatography. […] Image data were quantified with ImageJ (http://rsbweb.nib.gov/ij/index.html). […]

Data set [3] has the same test system. Description: LysoTracker Red staining of lysosomes. In kind it is cell-based. As to conditions: 10 μg/ml, 5 days. The procedure:
This section outlines the materials and methods that produced the experimental data. Immortalized human meibomian gland epithelial cells were cultured in the presence or absence of 10% fetal bovine serum. […]
as §1, with “acetate. Samples were then dehydrated in graded ethyl alcohol solutions and embedded by using the tEPON-812 epoxy resin kit. Cross sections ([…]) were stained with 1% toluidine blue in 1% sodium tetraborate solution.” for “acetate.”

For data set [4] the following is noted: topical 0.5, 1.0 and 1.5% AZM eye drops, for 24 hours; cited from earlier work.
The test system of data set [5] is immortalized human meibomian gland cells. As to the kind of experiment: 13-cis RA-induced late apoptosis/necrosis. It is filed as cell-based.

In the case of `CC[C@H]1OC(=O)[C@H](C)[C@@H](O[C@H]2C[C@@](C)(OC)[C@@H](O)[C@H](C)O2)[C@H](C)[C@@H](O[C@@H]2O[C@H](C)C[C@H](N(C)C)[C@H]2O)[C@](C)(O)C[C@@H](C)CN(C)[C@H](C)[C@@H](O)[C@]1(C)O` [Azithromycin], the “terminal maturation and holocrine-like secretion” value in data set [1] is “promote terminal maturation”. Also, the “accumulation of free cholesterol (Filipin)” value in data set [2] is “significantly stimulates the accumulation”. Besides, the “accumulation of lysosomes (LysoTracker)” value in data set [3] was “significantly stimulates the accumulation”. Moreover, in data set [4], the tear concentration entry is given as “above 7 μg/ml”.

Turning to “IGF-1: recombinant human insulin-like growth factor 1”, the “13-cis RA-induced late apoptosis/necrosis” value in data set [5] is on record as “attenuates”.
